Experimental data from patent US20170305943A1, “COMPOUNDS FOR THE TREATMENT OF BACTERIAL INFECTIONS” (priority 2014, published 2017).
≈ marks a conversion by molar mass, not a printed value.

What was measured:
Experiment in all cases: Bacterial Assay: Determination of Antibacterial Activity (MIC, broth microdilution or agar dilution)
Format in all cases: cell-based
[1] = system: Clostridium difficile (Isolate ID 027-01); conditions: Clostridioides difficile, 48 h, read-out: MIC (μg/mL) C. difficile (027-01)
Procedure, shortened: (§1)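 MICs were set by CLSI broth microdilution or agar dilution for anaerobes, read visually after 48 hours at 37° C. under anaerobic gas packs. Medium was reinforced clostridial medium with 0.1% defibrinated horse blood; values are binned as A ≦1.01, B >1.0-4.0, C >4.0-16 μg/mL.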

[2] = system: Clostridium difficile (Isolate ID ATCC 9689); conditions: Clostridioides difficile, ATCC9689, 48 h, read-out: C. difficile MIC Activity Range
Procedure, shortened: as §1

[3] = system: Clostridium difficile (Isolate ID BI-9); conditions: Clostridioides difficile, 48 h, read-out: MIC (μg/mL) C. difficile (B-I9)
Procedure, shortened: as §1

Row | Structure (SMILES) | MIC [1] [µg/mL] | MIC [2] [µg/mL] | MIC [3] [µg/mL]
1 | COc1ncccc1CNC(=O)OCC(Oc1ccc(F)c(C(N)=O)c1F)c1nc(-c2ccc(C(F)(F)F)cc2)c(Br)o1 (stereo not drawn) [Compound 74, 2-{5-bromo-4-[4-(trifluoromethyl)phenyl]-1,3-oxazol-2-yl}-2-(3-carbamoyl-2,4-difluorophenoxy)ethyl [(2-methoxypyridin-3-yl)methyl]carbamate] | 0.5 (≈ 0.745 µM) | < 1.01 | 0.5 (≈ 0.745 µM)
2 | NC(=O)c1c(F)ccc(OCC#CCOc2ccc(OC(F)(F)F)cc2)c1F [Compound 160, 2,6-difluoro-3-({4-[4-(trifluoromethoxy)phenoxy]but-2-yn-1-yl}oxy)benzamide] | 0.25 (≈ 0.623 µM) | < 1.01 | 0.25 (≈ 0.623 µM)
3 | NC(=O)c1c(F)ccc(OCCCCCOc2ccc(C(F)(F)F)cc2)c1F [Compound 132, 2,6-difluoro-3-({5-[4 (trifluoromethyl)phenoxy]pentyl}oxy) benzamide] | 0.25 (≈ 0.62 µM) | < 1.01 | 0.5 (≈ 1.24 µM)
4 | NC(=O)c1c(F)ccc(OCCCCOc2ccc(S(F)(F)(F)(F)F)cc2)c1F [Compound 159] | 0.12 (≈ 0.268 µM) | < 1.01 | 0.12 (≈ 0.268 µM)
5 | NC(=O)c1c(F)ccc(OCc2nc(-c3ccc(Cl)s3)cs2)c1F [Compound 203, 3-{[4-(5-chlorothiophen-2-yl)-1,3-thiazol-2-yl]methoxy}-2,6-difluorobenzamide] | 0.5 (≈ 1.29 µM) | < 1.01 | 1 (≈ 2.59 µM)
6 | NC(=O)c1c(F)ccc(OCc2nc(-c3ccc(C(F)(F)F)cc3)c(Br)o2)c1F [Compound 208, 3-({5-bromo-4-[4-(trifluoromethyl)phenyl]-1,3-oxazol-2-yl}methoxy)-2,6-difluorobenzamide] | 0.06 (≈ 0.126 µM) | < 1.01 | 0.06 (≈ 0.126 µM)
7 | NC(=O)c1c(F)ccc(OCCCCCCOc2ccc(OC(F)(F)F)cc2)c1F [Compound 134, 2,6-difluoro-3-({6-[4 (trifluoromethoxy)phenoxy]hexyl}oxy) benzamide] | 0.25 (≈ 0.577 µM) | < 1.01 | 0.25 (≈ 0.577 µM)
8 | NC(=O)c1c(F)ccc(OCc2ccn(-c3ccc(OC(F)(F)F)cc3)n2)c1F [Compound 108, 2,6-difluoro-3-({1-[4-(trifluoromethoxy)phenyl]-1H-pyrazol-3-yl}methoxy)benzamide] | 0.5 (≈ 1.21 µM) | < 1.01 | 0.5 (≈ 1.21 µM)
